Source: article PMC10377601, “Side Chain-Modified Benzothiazinone Derivatives with Anti-Mycobacterial Activity” (Biomedicines, 2023)
Values after ≈ are worked out from the molar mass of the structure shown.

Tests used:
[1] = test system: Mycobacterium tuberculosis; set-up: method as in PMID 24500695; conditions: whole-cell activity; cited from earlier work
[2] = Pharmacokinetic study in mice; assay type: in vivo; conditions: male, ICR, mouse, plasma; for clearance: read-out: Clint (hepatic clearance) (converted); for bioavailability: oral, p.o. 10 mg/kg vs i.v. 2 mg/kg, read-out: F (oral bioavailability)
Source text: Animal Care and Welfare Committee of Shanghai Institute of Materia Medica, Chinese Academy of Sciences approved all animal protocols. All animal programs are in compliance with the Guide for the Care and Use of Laboratory Animals issued by Shanghai Association on Laboratory Animal Care (SALAC). SPF male ICR mice weighing 25–27 g were divided into two groups, three mice in each group. The tested compounds were administrated via oral and intravenous injection, separately. […] The compound was co-dissolved by using 0.5% carboxymethyl cellulose for p.o. administration, and 10% DMSO/40%PEG400/40% water was used for i.v. administration, respectively. After oral dosing or i.v. administration, the blood was sampled at 5, 15, 30 min, and 1, 2, 4, 7, and 24 h. The sample plasma was harvested and stored at −80 °C for analysis. Based on noncompartmental analysis (Pharsight Corporation, Sunnyvale, CA, USA), the pharmacokinetic data were analyzed using WinNonlin software version 6.3.

[3] = target: T1, recombinant M. tuberculosis DprE1 enzyme (Mycobacterium tuberculosis, UniProt P9WJF1); assay: DprE1 inhibition, Amplex Red/peroxidase coupled assay; assay type: biochemical; conditions: Mtb DprE1
T1 construct: made in house; host or cells: E. coli

M. tuberculosis H37Rv [4] = assay: In vivo efficacy, mouse model acutely infected with Mtb H37Rv, lung CFU; conditions: BALB/C mice, oral 50 mg/kg once per day for 4 weeks except weekends
M. tuberculosis H37Rv [5] = assay: MIC determination by microplate alamar blue assay (MABA); assay type: cell-based; conditions: Mycobacterium tuberculosis
in vitro = in vitro ADME; set-up: dose or concentration left out as unconfirmed; conditions: human, microsomes, pH 7.4
Description: The compounds’ metabolic stability were determined in human liver microsomes. A solution of microsomes (0.2 mg/mL) containing the compounds […], NADPH (1 mM), and phosphate buffer (100 mM, pH 7.4) were prepared. Pre-incubation was conducted at 37 °C for 10 min. There was addition of 50 µL and 5 mM NADPH to initiate the reaction. At 5, 15, 30, 60, or 120 min, 30 µL of reaction solution was taken out and quenched with 300 µL internal standard tolbutamide (10 ng/mL) in cold CH3CN. The mixture was centrifuged at 6000 rpm for 15 min at 4 °C. Then, 100 μL supernatant was diluted with 100 uL ultrapure water (Millipore, ZMQS50F01). The solution was analyzed via LC/MS analysis.

[6] = Cytotoxicity against HepG2 cell, MTT assay; assay type: cell-based; conditions: human, HepG2 cells, at 5.0 μg/mL, 24 h
Description: (§1) HepG2 cells we r e obtained from the Chinese Type Culture Collection (Shanghai, China) and maintained in Dulbecco’s modiﬁed eagle medium (Gibco; #C11995500BT) con‐ taining 1% (v/v) penicillin/streptomycin (Beyotime; #C0222) and 10% (v/v) fetal bovine se‐ rum (Gibco; #GB10270106) in an atmosphere of 5% CO2 at 37 °C. HepG2 cells we r e seeded into 96‐we l l plates at a density of 5,000 cells/well (100 µL total volume) and treated with diﬀerent concentrations of compound 2 and 37 (0, 0.025, 0.2, 1, 5, and 10 µg/mL). After 24 h the medium wa s removed and the cells we r e incubated in a fresh medium containing 5 mg/mL MTT for 4 h. The medium wa s then removed and the precipitated formazan wa s dissolved in 100 µL of DMSO followed by shaking for 10 min. Finally, the absorbance at 570 nm wa s measured on a microplate spectrophotometer. Each treatment wa s performed […]
(§2) Figure S1. Inhibitory activity of compounds 2 and 37 against HepG2 cell. […]

HepG2 cell = assay: Cytotoxicity against HepG2 cell, MTT assay; assay type: cell-based; conditions: at a concentration lower than 1.0 μg/mL
Description: as §1, §2

M. tuberculosis H37Rv [7] = assay: [14C]-acetate metabolic labeling, TLC analysis of lipids; assay type: cell-based; conditions: Mtb H37Rv, 10 × MIC, 100 × MIC, 24 h, compared to control bacteria
E. coli = assay: Inhibitory potency against E. coli; assay type: cell-based; conditions: at 16 µg/mL
[8] = Kinetic solubility in PBS; conditions: pH 7.4, aqueous buffer, kinetic from dmso stock
physchem = conditions: pH 7.4, aqueous buffer, kinetic from dmso stock

T1 sequence (P9WJF1 whole entry): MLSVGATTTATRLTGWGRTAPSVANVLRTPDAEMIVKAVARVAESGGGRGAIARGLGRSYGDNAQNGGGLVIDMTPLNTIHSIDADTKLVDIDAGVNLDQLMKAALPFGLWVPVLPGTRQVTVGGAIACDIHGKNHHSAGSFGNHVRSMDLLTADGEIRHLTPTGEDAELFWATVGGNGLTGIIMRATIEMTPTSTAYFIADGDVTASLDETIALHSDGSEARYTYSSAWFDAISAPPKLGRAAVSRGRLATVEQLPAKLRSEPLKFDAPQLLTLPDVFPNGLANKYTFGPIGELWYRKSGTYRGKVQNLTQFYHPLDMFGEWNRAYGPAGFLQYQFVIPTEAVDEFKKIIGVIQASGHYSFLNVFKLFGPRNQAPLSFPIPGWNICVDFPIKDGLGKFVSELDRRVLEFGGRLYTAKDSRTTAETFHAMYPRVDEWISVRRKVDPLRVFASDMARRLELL

Row | SMILES | IC50 [3] [µM] | MIC (M. tuberculosis H37Rv [5]; Mtb H37Rv, MABA) [µM] | CLint scaled (in vitro) [L/h/kg] | half-life (in vitro) [h] | MIC (M. tuberculosis H37Rv [5]; H37Rv, Table S1) [ng/mL] | other results
1 | C[C@H]1COC2(CCN(c3nc(=O)c4cc(C(F)(F)F)cc([N+](=O)[O-])c4s3)CC2)O1 [BTZ043] | – | – | – | – | – | minimal inhibitory concentration (MIC) [1]: lower than 0.004 µM
2 | CN(Cc1cn(-c2ccccc2)nn1)c1nc(=O)c2cc(C(F)(F)F)cc([N+](=O)[O-])c2s1 [Compound 2, 2-{methyl[(1-phenyl-1H-1,2,3-triazol-4-yl)methyl]amino}-BTZ] | 0.02 to 0.75 | 0.009 | 1.04 | 1.67 | – | AUC ([2]; IV 2 mg/kg): 1.21 µg·h/mL; Cmax ([2]; IV 2 mg/kg): 1.25 µg/mL; MRT ([2]; IV 2 mg/kg): 1.5 h; half-life ([2]; IV 2 mg/kg): 1.1 h; clearance ([2]; IV 2 mg/kg): 1.67 L/h/kg; AUC ([2]; PO 10 mg/kg): 2.19 µg·h/mL; Cmax ([2]; PO 10 mg/kg): 1.8 µg/mL; MRT ([2]; PO 10 mg/kg): 2 h; half-life ([2]; PO 10 mg/kg): 1.3 h; bioavailability [2]: 35.7%; Reduction of bacteria load in the lungs compared to the control group (M. tuberculosis H37Rv [4]): barely displayed efficacy; MIC (M. tuberculosis H37Rv [5]; 168 h, Mtb H37Rv, MABA): 0.009 µM; viability at 24 h, 5 μg/mL [6]: 72 to 75%; Inhibition of HepG2 cell viability (HepG2 cell): No inhibition of cell viability; Lipid profile after [14C]-acetate labeling (M. tuberculosis H37Rv [7]): accumulated trehalose monomycolates (TMM) and trehalose dimycolates (TDM); Inhibitory potency against E. coli (E. coli): no obvious activity; solubility at 4 h [8]: 0.13 µg/mL (≈ 0.281 µM)
3 | CN(Cc1cn(-c2c(F)cccc2F)nn1)c1nc(=O)c2cc(C(F)(F)F)cc([N+](=O)[O-])c2s1 [Compound 24] | 7.2 | 0.259 | – | – | – | –
4 | CN(Cc1cn(-c2ccc(Cl)c(Cl)c2)nn1)c1nc(=O)c2cc(C(F)(F)F)cc([N+](=O)[O-])c2s1 [Compound 26] | 0.02 | 0.036 | – | – | 4 | –
5 | CN(Cc1cn(-c2ccc(F)c(Br)c2)nn1)c1nc(=O)c2cc(C(F)(F)F)cc([N+](=O)[O-])c2s1 [Compound 27] | 7.2 | 0.055 | – | – | 129 | –
6 | CN(Cc1cn(-c2ccc(F)c(Cl)c2)nn1)c1nc(=O)c2cc(C(F)(F)F)cc([N+](=O)[O-])c2s1 [Compound 28] | 0.041 | 0.029 | – | – | 8 | –
7 | CN(Cc1cn(-c2ccc(Cl)cc2Cl)nn1)c1nc(=O)c2cc(C(F)(F)F)cc([N+](=O)[O-])c2s1 [Compound 29] | 0.024 | 0.023 | – | – | 4 | –
8 | CN(Cc1cn(-c2cc(Cl)cc(Cl)c2)nn1)c1nc(=O)c2cc(C(F)(F)F)cc([N+](=O)[O-])c2s1 [Compound 30] | 0.09 | 0.047 | – | – | 6 | –
9 | CN(Cc1coc(-c2ccccc2)n1)c1nc(=O)c2cc(C(F)(F)F)cc([N+](=O)[O-])c2s1 [Compound 31, 2-{methyl[(2-phenyloxazol-4-yl)methyl]amino}-BTZ] | 0.22 | 0.006 | 3.1 | 0.56 | 13 | –
10 | CN(Cc1coc(-c2ccc(F)cc2)n1)c1nc(=O)c2cc(C(F)(F)F)cc([N+](=O)[O-])c2s1 [Compound 32] | 0.75 | 0.006 | – | – | 16 | –
11 | CN(Cc1coc(-c2cccc(F)c2)n1)c1nc(=O)c2cc(C(F)(F)F)cc([N+](=O)[O-])c2s1 [Compound 33] | 0.074 | 0.021 | – | – | 3 | –
12 | CN(Cc1csc(-c2ccccc2)n1)c1nc(=O)c2cc(C(F)(F)F)cc([N+](=O)[O-])c2s1 [Compound 34, 2-{methyl[(2-phenylthiazol-4-yl)methyl]amino}-BTZ] | 0.069 | 0.015 | 4.3 | 0.405 | 3 | MIC (M. tuberculosis H37Rv [5]; 168 h, Mtb H37Rv, MABA): 0.015 µM
13 | CN(Cc1csc(-c2cccc(F)c2)n1)c1nc(=O)c2cc(C(F)(F)F)cc([N+](=O)[O-])c2s1 [Compound 35] | 0.065 | 0.032 | – | – | 7 | MIC (M. tuberculosis H37Rv [5]; 168 h, Mtb H37Rv, MABA): 0.032 µM
14 | CN(Cc1csc(-c2ccc(F)cc2)n1)c1nc(=O)c2cc(C(F)(F)F)cc([N+](=O)[O-])c2s1 [Compound 36, 2-{[(2-(4-fluorophenyl)thiazol-4-yl)methyl](methyl)amino}-BTZ] | – | 0.034 | 1.53 | 1.14 | – | MIC (M. tuberculosis H37Rv [5]; 168 h, Mtb H37Rv, MABA): 0.034 µM
15 | CN(Cc1nnc(-c2ccccc2)o1)c1nc(=O)c2cc(C(F)(F)F)cc([N+](=O)[O-])c2s1 [Compound 37, 2-{methyl[(5-phenyl-1,3,4-oxadiazol-2-yl)methyl]amino}-BTZ] | 0.02 to 0.75 | 0.006 | 1.53 | 1.14 | – | AUC ([2]; IV 2 mg/kg): 0.528 µg·h/mL; Cmax ([2]; IV 2 mg/kg): 1.86 µg/mL; MRT ([2]; IV 2 mg/kg): 0.4 h; half-life ([2]; IV 2 mg/kg): 0.3 h; clearance ([2]; IV 2 mg/kg): 3.84 L/h/kg; AUC ([2]; PO 10 mg/kg): 1.87 µg·h/mL; Cmax ([2]; PO 10 mg/kg): 1.89 µg/mL; MRT ([2]; PO 10 mg/kg): 0.9 h; half-life ([2]; PO 10 mg/kg): 0.6 h; bioavailability [2]: 70.6%; Reduction of bacteria load in the lungs compared to the control group (M. tuberculosis H37Rv [4]): 1.2 logs; viability at 24 h, 5 μg/mL [6]: 72 to 75%; Inhibition of HepG2 cell viability (HepG2 cell): No inhibition of cell viability; Lipid profile after [14C]-acetate labeling (M. tuberculosis H37Rv [7]): accumulated trehalose monomycolates (TMM) and trehalose dimycolates (TDM); Inhibitory potency against E. coli (E. coli): no obvious activity; solubility at 4 h [8]: 0.25 µg/mL (≈ 0.539 µM)
16 | CN(Cc1nnc(-c2ccccc2)s1)c1nc(=O)c2cc(C(F)(F)F)cc([N+](=O)[O-])c2s1 [Compound 40, 2-{methyl[(5-phenyl-1,3,4-thiadiazol-2-yl)methyl]amino}-BTZ] | – | 0.033 | 3.04 | 0.572 | – | –
17 | O=c1nc(N2CCN(CC3CCCCC3)CC2)sc2c([N+](=O)[O-])cc(C(F)(F)F)cc12 [PBTZ169, reference compound] | – | < 0.004 | – | – | 0.2 | Reduction of bacteria load in the lungs compared to the control group (M. tuberculosis H37Rv [4]): 3 logs; Lipid profile after [14C]-acetate labeling (M. tuberculosis H37Rv [7]): accumulated trehalose monomycolates (TMM) and trehalose dimycolates (TDM); solubility at 4 h (physchem): < 0.011 µg/mL; minimal inhibitory concentration (MIC) [1]: lower than 0.004 µM
